{"source": "patent US20230109839A1", "about": "“THERAPEUTIC AGENT FOR TAUOPATHIES” (SUMITOMO PHARMA CO., LTD., priority 2020, published 2023)", "key": {"APP-Tg mouse": {"tested_on": "APP-Tg mouse", "assay": "Evaluation of the cognitive function by novel object recognition test (NORT) in APP-Tg mice (Test 3)", "type": "in vivo", "design": "key to Discrimination index: (novel − known search time)/(novel + known search time)", "conditions": "for improvement of cognitive function (NORT), summary of the above results / improvement of cognitive function (NORT): APP-Tg mice; for improvement of cognitive function (NORT), summary of the above results: alone, with Elacridar or with ABT depending on the compound", "experimental": "Test 3: Evaluation of the Cognitive Function by Novel Object Recognition Test (Hereinafter, Also Referred to as “NORT”)\nThe present test is for evaluating the improvement of cognitive function with the test compounds. When an APP-Tg mouse which is an AD (Alzheimer's disease) model mouse is evaluated by NORT, the memory for a familiar object decreases depending on the time interval between the first trial run (training) and the second trial run (test). For example, if the first trial run is done and 3 hours later the second one is done, there is no difference in the searching times between novel object and known object for the APP-Tg mouse, compared with a healthy mouse. Thus, the APP-Tg mouse suffers from significant amnesia.\nThe APP-Tg mouse used herein was prepared by constructing an expression cassette linked to human APP751 isoform to which Swedish (K670N/M671L) and Indiana (V717F) mutation were introduced at downstream of mouse Thy-1 promoter, then injecting the expression cassette into a mouse fertilized egg, and transplanting it to a host mouse. The prepared mouse presents with intracerebral AB accumulation and cognitive dysfunction from early on, and thus the mouse can be used for the evaluation of cognitive function. APP-Tg mouse has been also reported in Non-patent literature 6.\nTo the prepared APP-Tg mouse, the test compound was administered, and then the first trial run was done for the mouse 30 minutes after the intraperitoneal administration or after 10 days of mixed diet administration. The second trial run was done 3 hours after the first trial run, and the searching times between novel object and known object in the second trial were evaluated. The discrimination index was calculated from the searching time for novel object and known object in the second trial run, and the improvement of cognitive function of the test compound was confirmed by comparing the discrimination index with the test compound-unadministered group as an index of the cognitive function. The discrimination index was calculated by the following formula.\nDiscrimination index={(Searching time for novel object)−(Searching time for known object)}/{(Searching time for novel object)+(Searching time for known object)}\nThe present test can be also done with a combination with Elacridar (Tokyo Chemical Industry Co., Ltd.). Elacridar can inhibit P-gp and BCRP which are excretion transporters expressed in the blood-brain barrier and thereby Elacridar has the effect of improving the transferability of the test compound to the brain. Eracridal was orally administered to APP-Tg mice at 100 mg/kg 2 hours before the first trial run, and then the test compound was intraperitoneally administered to the mice 30 minutes before the first trial run according to the above method. And, the improvement of cognitive function was evaluated. The significant difference from the vehicle-administered group was determined using the parametric Dunnett multiple comparison test.\nAnd, the present test can be also done with a combination with ABT (1-aminobenzotriazole) (Tokyo Chemical Industry Co., Ltd.). ABT has the effect of improving the blood concentration of the test compound by inhibiting CYP and suppressing metabolism. The test compound and ABT (1 mg/g-food) were administered with food to APP-Tg mice for 10 days, and then the improvement of cognitive function was evaluated according to the above method. The significant difference from the vehicle-administered group was determined using the parametric Dunnett multiple comparison test."}, "rTg4510 mice": {"tested_on": "rTg4510 mice", "assay": "Cerebral atrophy in rTg4510 mice, MRI volume of brain regions (Test 5)", "type": "in vivo, mouse", "conditions": "for volume cerebellum / volume cerebral neocortex / volume hippocampus / volume lateral ventricle: 5.8 mg/g-food from the age of 4 months; for age-dependent increase in lateral ventricular volume vs non-administration group: mixed diet 3 mg/g-food with ABT 1 mg/g-food", "from_the_text": "Test 5: Evaluation of Intracerebral Tau Aggregate Accumulation and Cerebral Atrophy Using rTg4510 Mice\nThis test is a test to evaluate the effects of the compounds on intracerebral tau aggregate accumulation and cerebral atrophy. The rTg4510 mice overexpress the human-type FTDP-17 mutant tau in the forebrain, and month-age-dependent intracerebral tau aggregate accumulation and cerebral atrophy are observed. The rTg4510 mice used herein were produced by mating Tg (tauP301L) 4510 mice (Stock No. 015815) and CaMKII-tTA mice (Stock No. 007004) purchased from The Jackson Laboratory and breeding them.\nThe test compound was administered as a mixed diet to rTg4510 mice from the age of 4 months, and PET scan and MRI were performed at the ages of 4, 6 and 8 months to quantitatively evaluate the amount of the intracerebral tau aggregate accumulated and cerebral atrophy. The PET scan was performed using MicroPET Focus 220 of Siemens Medical Solutions (0.851 mm thick (intercenter) 95 slices, 19.0 cm axial field of view (FOV), and 7.6 cm intra-section FOV). The administration of radioactive compound [^18F] PM-PBB3 (precursor obtained from Aprinoia) and the PET scan were performed in dimly lit after the mice was treated with 1.5% isoflurane anesthesia to avoid […] of the radioactive compound. The emission scan was performed for 60 minutes immediately after the intravenous administration of [^18F] PM-PBB3 (1 mCi) (3D list mode, energy window: 350-750 keV). Then, the list mode data sorted into 3D synograms were converted into 2D synograms by Fourier-rebinding (frames: 4×1, 8×2 and 8×5 minutes). The dynamic image for 60 minutes after the administration of [^18F] PM-PBB3 was reconstructed by a filter-corrected back projection with a 0.5 mm Hanning filter. Regions of interest (ROI) were set in multiple brain regions using PMOD image analysis software (PMOD Technology) with reference to the MRI templates and the PET reconstructed images. Tau aggregate accumulation was evaluated by calculating SUVR (Standardized uptake value ratio) with the cerebellum as a reference region, based on the added average of dynamic images from 40 minutes to 60 minutes.\nThe evaluation of cerebral atrophy was performed with horizontal superconducting magnet type MRI (7T, inner diameter 400 mm, self-shielding type, zero boil-off type). The imaging was performed under isoflurane anesthesia while maintaining the rectal temperature at 36.5±0.5° C. After Tripilot acquisition, the brain images were acquired by TurboRARE T2 emphasis sequence (TR: 4200 ms, TE: 36 ms, Fat-Sup: on, NA: 4, RARE factor: 8, scan time: 14 min) (FOV read: 25.6 mm, FOV P1: 14.5 mm, Slice thickness: 0.5 mm, number of slices: 28). The ROI of each brain region was set in each of the acquired slices, and the volume of the brain region was calculated by summing the ROI areas of all the slices to evaluate the effect of the test compound."}, "[1]": {"conditions": "diet 5.8 mg/g-food from the age of 4 months"}}, "note": "“Also recorded” adds a separate entry of the source."}
{"smiles": "CC1CCN(c2ccc(=O)n(CC(=O)Nc3ccc(C#N)cc3)n2)CC1", "note": "[Example 1, N-(4-Cyanophenyl)-2-[3-(4-methylpiperidin-1-yl)-6-oxopyridazin-1(6H)-yl]acetamide]", "values": [{"measurement": "improvement of cognitive function (NORT), summary of the above results", "setting": "APP-Tg mouse", "result": "some improvement of cognitive function"}, {"measurement": "Discrimination index", "setting": "APP-Tg mouse; APP-Tg mouse, 30 minutes before first trial run", "result": 0.25}, {"measurement": "Discrimination index", "setting": "APP-Tg mouse; APP-Tg mouse, dose 3 (mg/g i.p.), 30 minutes before first trial run", "result": 0.12}, {"measurement": "Discrimination index", "setting": "APP-Tg mouse; APP-Tg mouse, dose 10 (mg/g i.p.), 30 minutes before first trial run", "result": 0.22}, {"measurement": "improvement of cognitive function, significant difference from the vehicle-administered group", "setting": "APP-Tg mouse; APP-Tg mouse, intraperitoneal doses of 10 and 30 mg/kg, parametric Dunnett multiple comparison test", "result": "statistically significant"}, {"measurement": "improvement of cognitive function (NORT, discrimination index)", "setting": "APP-Tg mouse; APP-Tg mouse, intraperitoneally 3, 10 and 30 mg/kg 30 minutes before the first trial run", "result": "dose-dependent improvement of cognitive function"}, {"measurement": "volume cerebellum", "setting": "rTg4510 mice; 4 month old", "result": "34.3 ± 0.19", "unit": "mm^3"}, {"measurement": "volume cerebral neocortex", "setting": "rTg4510 mice; 4 month old", "result": "60.1 ± 0.49", "unit": "mm^3"}, {"measurement": "volume hippocampus", "setting": "rTg4510 mice; 4 month old", "result": "14.0 ± 0.13", "unit": "mm^3"}, {"measurement": "volume lateral ventricle", "setting": "rTg4510 mice; 4 month old", "result": "0.79 ± 0.014", "unit": "mm^3"}, {"measurement": "volume cerebellum", "setting": "rTg4510 mice; 6 month old", "result": "33.9 ± 0.18", "unit": "mm^3"}, {"measurement": "volume cerebral neocortex", "setting": "rTg4510 mice; 6 month old", "result": "50.9 ± 0.98", "unit": "mm^3"}, {"measurement": "volume hippocampus", "setting": "rTg4510 mice; 6 month old", "result": "12.6 ± 0.22", "unit": "mm^3"}, {"measurement": "volume lateral ventricle", "setting": "rTg4510 mice; 6 month old", "result": "1.70 ± 0.312", "unit": "mm^3"}, {"measurement": "volume cerebellum", "setting": "rTg4510 mice; 8 month old", "result": "33.4 ± 0.33", "unit": "mm^3"}, {"measurement": "volume cerebral neocortex", "setting": "rTg4510 mice; 8 month old", "result": "45.3 ± 1.13", "unit": "mm^3"}, {"measurement": "volume hippocampus", "setting": "rTg4510 mice; 8 month old", "result": "12.7 ± 0.12", "unit": "mm^3"}, {"measurement": "volume lateral ventricle", "setting": "rTg4510 mice; 8 month old", "result": "0.61 ± 0.036", "unit": "mm^3"}, {"measurement": "age-dependent cerebral atrophy in the cerebral neocortex and hippocampus (volume, FIG. 2)", "setting": "rTg4510 mice; [1]", "result": "statistically significantly suppressed"}, {"measurement": "age-dependent increase in the lateral ventricular volume (FIG. 2)", "setting": "rTg4510 mice; [1]", "result": "statistically significantly suppressed"}, {"measurement": "cerebral atrophy and enlargement of the lateral ventricle with aging (T2-weighted images, FIG. 1)", "setting": "rTg4510 mice; diet 5.8 mg/g-food from the age of 4 months, ages 4, 6 and 8 months, vs non-administration group", "result": "significantly suppressed"}]}
{"smiles": "CC1CC=C(c2cnc3cnn(CC(=O)Nc4ccn5ncnc5c4)c3n2)CC1", "note": "(centres unmarked) [Example 577, 2-[6-(4-methylcyclohex-1-en-1-yl)-1H-pyrazolo[3,4-b]pyrazin-1-yl]-N-([1,2,4]triazolo[1,5-a]pyridin-7-yl)acetamide]", "values": [{"measurement": "improvement of cognitive function (NORT)", "setting": "APP-Tg mouse; Elacridar orally 100 mg/kg 2 hours before, test compound intraperitoneally 30 minutes before the first trial run, 100 mg/kg", "result": "some improvement of cognitive function; also recorded: strong improvement of cognitive function"}, {"measurement": "improvement of cognitive function (NORT), summary of the above results", "setting": "APP-Tg mouse", "result": "some improvement of cognitive function"}, {"measurement": "Discrimination index", "setting": "APP-Tg mouse; APP-Tg mouse, dose 10 (mg/g i.p.), with Elacridar 100 mg/kg orally 2 hours before first trial run", "result": 0.13}, {"measurement": "Discrimination index", "setting": "APP-Tg mouse; APP-Tg mouse, with Elacridar 100 mg/kg orally 2 hours before first trial run", "result": 0.21}, {"measurement": "suppression of cerebral atrophy", "setting": "rTg4510 mice; mixed diet 0.7 and 6.6 mg/g-food", "result": "no suppression"}]}
{"smiles": "CN(c1ncc2cnn(CC(=O)Nc3ccn4ncnc4c3)c2n1)C1CCCC1", "note": "[Example 795, 2-{6-[cyclopentyl(methyl)amino]-1H-pyrazolo[3,4-d]pyrimidin-1-yl}-N-([1,2,4]triazolo[1,5-a]pyridin-7-yl)acetamide]", "values": [{"measurement": "improvement of cognitive function (NORT), summary of the above results", "setting": "APP-Tg mouse", "result": "some improvement of cognitive function"}, {"measurement": "improvement of cognitive function (NORT)", "setting": "APP-Tg mouse; test compound and ABT (1 mg/g-food) administered with food for 10 days", "result": "some improvement of cognitive function"}, {"measurement": "Discrimination index", "setting": "APP-Tg mouse; APP-Tg mouse, dose 0.2 mg/g-food for 10 days, with ABT 1 mg/g-food", "result": 0.30}, {"measurement": "Discrimination index", "setting": "APP-Tg mouse; APP-Tg mouse, dose 2 mg/g-food for 10 days, with ABT 1 mg/g-food", "result": 0.27}, {"measurement": "age-dependent increase in lateral ventricular volume vs non-administration group", "setting": "rTg4510 mice; at the age of 6 months", "result": "tendency to suppress"}, {"measurement": "age-dependent increase in lateral ventricular volume vs non-administration group", "setting": "rTg4510 mice; at the age of 8 months", "result": "not different"}]}
